From patent US4683301A, “Carbapenem antibiotics” (Bristol-Myers Company, priority 1984, dated 1987)
Values after ≈ are worked out from the molar mass of the structure shown. Where two headings read alike, the source gives them in different places.

Tests used:
[1] = tested on: S. pneumoniae A-9585; assay: In vitro MIC, tube dilution in Nutrient Broth, overnight at 37° C.; format: cell-based; conditions: Streptococcus pneumoniae, A9585
[2] = tested on: S. pyogenes A-9604; assay: as above; format: cell-based; conditions: Streptococcus pyogenes, A9604
[3] = tested on: S. aureus A-9537; assay: as above; format: cell-based; conditions: Staphylococcus aureus
[4] = tested on: S. aureus A-9606 (Pen-res.); assay: as above; format: cell-based; conditions: Staphylococcus aureus
[5] = tested on: S. aureus A15097 (Meth-res.); assay: microbe, parasite or virus in culture; format: cell-based; conditions: Staphylococcus aureus
[6] = tested on: S. faecalis A20688; assay: In vitro MIC, tube dilution in Nutrient Broth, overnight at 37° C.; format: cell-based; conditions: Enterococcus faecalis
[7] = tested on: E. coli A15119; assay: as above; format: cell-based; conditions: Escherichia coli
[8] = tested on: E. coli A20341-1; assay: as above; format: cell-based
[9] = tested on: P. vulgaris A21559; assay: as above; format: cell-based; conditions: Proteus vulgaris
[10] = tested on: P. aeruginosa A-9843A; assay: as above; format: cell-based; conditions: Pseudomonas aeruginosa, A9843A
[11] = tested on: H. influenzae A-9833; assay: as above; format: cell-based; conditions: Haemophilus influenzae, A9833
[12] = tested on: H. influenzae A20178; assay: as above; format: cell-based; conditions: Haemophilus influenzae
[13] = tested on: H. influenzae A21518; assay: as above; format: cell-based; conditions: Haemophilus influenzae
[14] = tested on: H. influenzae A21522; assay: as above; format: cell-based; conditions: Haemophilus influenzae
[15] = tested on: B. fragilis A22862; assay: as above; format: cell-based; conditions: Bacteroides fragilis
[16] = tested on: E. cloacae A-9659; assay: Protective effect in the intramuscular treatment of infected mice; format: in vivo; conditions: Enterobacter cloacae, A9659, im; i.m., challenge 4 × 10^6 organisms, treated 1 and 3.5 h postinfection; read-out: PD50/Treatment
Experimental: (§1) 3.5 hours (all others); 5 mice were used in each test.

[17] = tested on: E. coli A15119; assay: as above; format: in vivo; conditions: Escherichia coli, A15119, im; i.m., challenge 6 × 10^6 organisms, treated 1 and 3.5 h postinfection; read-out: PD50/Treatment
Experimental: as §1

[18] = tested on: K. pneumoniae A-9664; assay: as above; format: in vivo; conditions: Klebsiella pneumoniae, A9664, im; i.m., challenge 7 × 10^6 organisms, treated 1 and 3.5 h postinfection; read-out: PD50/Treatment
Experimental: as §1

[19] = tested on: M. morganii A15149; assay: as above; format: in vivo; conditions: Morganella morganii, A15149, im; i.m., challenge 7 × 10^5 organisms, treated 1 and 3.5 h postinfection; read-out: PD50/Treatment
Experimental: as §1

[20] = tested on: P. aeruginosa A-9843a; assay: as above; format: in vivo; conditions: Pseudomonas aeruginosa, A9843A, im, challenge 3 × 10^4 organisms, treated 0 and 2 h postinfection; read-out: PD50/Treatment
Experimental: as §1

[21] = tested on: P. aeruginosa A20481; assay: as above; format: in vivo; conditions: Pseudomonas aeruginosa, A20481, im; i.m., challenge 3 × 10^4 organisms, treated 0 and 2 h postinfection; read-out: PD50/Treatment
Experimental: as §1

[22] = tested on: P. aeruginosa A20599; assay: as above; format: in vivo; conditions: Pseudomonas aeruginosa, A20599, im; i.m., challenge 9 × 10^4 organisms, treated 0 and 2 h postinfection; read-out: PD50/Treatment
Experimental: as §1

[23] = tested on: P. rettgeri A15167-2; assay: as above; format: in vivo; conditions: Providencia rettgeri, A151672, im, read-out: PD50/Treatment
Experimental: as §1

[24] = tested on: P. vulgaris A21559; assay: as above; format: in vivo; conditions: Proteus vulgaris, A21559, im; i.m., challenge 4 × 10^5 organisms, treated 0 and 2 h postinfection; read-out: PD50/Treatment
Experimental: as §1

[25] = tested on: S. aureus A-9606; assay: as above; format: in vivo; conditions: Staphylococcus aureus, A9606, im; i.m., challenge 1 × 10^9 organisms, treated 1 and 3.5 h postinfection; read-out: PD50/Treatment
Experimental: as §1

[26] = tested on: S. marcescens A20335; assay: as above; format: in vivo; conditions: Serratia marcescens, A20335, im; i.m., challenge 9 × 10^6 organisms, treated 1 and 3.5 h postinfection; read-out: PD50/Treatment
Experimental: as §1

[27] = tested on: P. mirabilis A-9900; assay: as above; format: in vivo; conditions: Proteus mirabilis, A9900, im, read-out: PD50/Treatment
Experimental: The PD50 (dose in mg/kg required to give protection to 50% of the infected mice) is indicated.
Treatment Schedule: Mice were treated i.m. with drugs 0 and 2 hours

[28] = Blood levels in mice after intramuscular administration; format: in vivo; conditions: mouse, im, 20 mg/kg i.m.
From the text: *t1/2refers to halflife in minutes
**AUC refers to the area under the curve

[29] = Urinary recovery after intramuscular administration to mice; format: in vivo; conditions: mouse, urine, im, 20 mg/kg, 20 mg/kg i.m., read-out: Urinary recovery, Percentage of Dose Recovered
From the text: | a single test; 4 mice per compound.

[30] = in vivo; conditions: mouse
[31] = tested on: K. pneumoniae A-9664; assay: microbe, parasite or virus in culture; conditions: Klebsiella pneumoniae, A9664
[32] = tested on: K. pneumoniae A20468; assay: microbe, parasite or virus in culture; conditions: Klebsiella pneumoniae
[33] = tested on: P. mirabilis A-9900; assay: microbe, parasite or virus in culture; conditions: Proteus mirabilis, A9900
[34] = tested on: P. morganii A15153; assay: microbe, parasite or virus in culture; conditions: Morganella morganii
[35] = tested on: S. marcescens A20019; assay: microbe, parasite or virus in culture; conditions: Serratia marcescens
[36] = tested on: E. cloacae A-9659; assay: microbe, parasite or virus in culture; conditions: Enterobacter cloacae, A9659
[37] = tested on: E. cloacae A-9656; assay: microbe, parasite or virus in culture; conditions: Enterobacter cloacae, A9656
[38] = tested on: B. fragilis A22053; assay: microbe, parasite or virus in culture; conditions: Bacteroides fragilis
[39] = tested on: B. fragilis A22863; assay: microbe, parasite or virus in culture; conditions: Bacteroides fragilis
[40] = Toxicity after intracranial administration to mice; conditions: mouse, in vivo
[41] = tested on: Pseudomonas species; conditions: in words; prior art; cited from earlier work

Q: Which MIC [1] does the source give for `C[C@@H](O)[C@H]1C(=O)N2C(C(=O)[O-])=C(SCC[S+]3CCCC3)C[C@H]12` [Example 1, 3-[2-(1-tetrahydrothiophenium)ethylthio]-6α-[1-(R)-hydroxyethyl]-7-oxo-1-azabicyclo[3.2.0]hept-2-ene-2-carboxylate] here?
A: 0.002 µg/mL (≈ 0.00582 µM)

Q: And the MIC [2]?
A: 0.004 µg/mL (≈ 0.0116 µM)

Q: And the MIC ([3]; A9537, S. aureus A-9537)?
A: 0.008 µg/mL (≈ 0.0233 µM)

Q: And the MIC ([3]; A9537, S. aureus A-9537 +50% serum)?
A: 0.03 µg/mL (≈ 0.0873 µM)

Q: And the MIC [4]?
A: 0.016 µg/mL (≈ 0.0466 µM)

Q: What about the MIC [5] of the same molecule?
A: 2 µg/mL (≈ 5.82 µM)

Q: And the MIC [6]?
A: 0.5 µg/mL (≈ 1.46 µM)

Q: And the MIC ([7]; A15119, E. coli A15119 (10^-2))?
A: 0.06 µg/mL (≈ 0.175 µM)

Q: And the MIC ([7]; A15119, E. coli A15119 (10^-3))?
A: 0.06 µg/mL (≈ 0.175 µM)

Q: And the MIC ([7]; E. coli A15119 (10^-4 dil.), read-out: MIC)?
A: 0.03 µg/mL (≈ 0.0873 µM)

Q: And the MIC ([8]; E. coli A20341-1 (10^-3))?
A: 0.03 µg/mL (≈ 0.0873 µM)

Q: And the MIC ([8]; Escherichia coli, A203411, E. coli A20341-1 (10^-2))?
A: 0.06 µg/mL (≈ 0.175 µM)

Q: And the MIC ([8]; Escherichia coli, A203411, E. coli A20341-1 (10^-4), read-out: MIC)?
A: 0.03 µg/mL (≈ 0.0873 µM)

Q: What about the MIC [9] of the same molecule?
A: 0.03 µg/mL (≈ 0.0873 µM)

Q: And the MIC [10]?
A: 1 µg/mL (≈ 2.91 µM)

Q: What about the MIC [11] of the same molecule?
A: 8 µg/mL (≈ 23.3 µM)

Q: What about the MIC [12] of the same molecule?
A: 8 µg/mL (≈ 23.3 µM)

Q: And the MIC [13]?
A: 8 µg/mL (≈ 23.3 µM)

Q: What about the MIC [14] of the same molecule?
A: 8 µg/mL (≈ 23.3 µM)

Q: What about the MIC [15] of the same molecule?
A: 0.06 µg/mL (≈ 0.175 µM)

Q: And the ED50 [16]?
A: 1.3 mg/kg

Q: What about the ED50 [17] of the same molecule?
A: 1.6 mg/kg

Q: And the ED50 [18]?
A: 5 mg/kg

Q: And the ED50 [19]?
A: 3.3 mg/kg

Q: What about the ED50 [20] of the same molecule?
A: 0.6 mg/kg

Q: What about the ED50 [21] of the same molecule?
A: 0.8 mg/kg

Q: What about the ED50 [22] of the same molecule?
A: 1.3 mg/kg

Q: What about the ED50 [23] of the same molecule?
A: 8.7 mg/kg

Q: What about the ED50 [24] of the same molecule?
A: 3.3 mg/kg

Q: And the ED50 [25]?
A: 0.19 mg/kg

Q: What about the ED50 [26] of the same molecule?
A: 5 mg/kg

Q: What about the ED50 [27] of the same molecule?
A: 7.7 mg/kg

Q: What about the AUC [28] of the same molecule?
A: 7400 ng·h/mL

Q: What about the half-life [28] of the same molecule?
A: 9 min

Q: And the dose excreted at 3 h ([29]; 0-3 hours)?
A: 15.6%

Q: And the dose excreted at 24 h ([29]; 0-24 hours)?
A: 17.7 ± 2.9%

Q: What about the dose excreted at 6 h ([29]; 3-6 hours) of the same molecule?
A: 2.1%

Q: And the dose excreted at 24 h ([29]; 6-24 hours)?
A: < 0.2%

Q: What about the NOAEL [30] of the same molecule?
A: ~5 mg/kg

Q: And the MIC [31]?
A: 0.06 µg/mL (≈ 0.175 µM)

Q: What about the MIC [32] of the same molecule?
A: 0.13 µg/mL (≈ 0.378 µM)

Q: What about the MIC [33] of the same molecule?
A: 0.13 µg/mL (≈ 0.378 µM)

Q: And the MIC [34]?
A: 0.06 µg/mL (≈ 0.175 µM)

Q: And the MIC [35]?
A: 0.06 µg/mL (≈ 0.175 µM)

Q: And the MIC [36]?
A: 0.13 µg/mL (≈ 0.378 µM)

Q: What about the MIC [37] of the same molecule?
A: 0.13 µg/mL (≈ 0.378 µM)

Q: And the MIC [38]?
A: 0.06 µg/mL (≈ 0.175 µM)

Q: What about the MIC [39] of the same molecule?
A: 0.06 µg/mL (≈ 0.175 µM)

Q: What about the LD50 [40] of the same molecule?
A: > 40 mg/kg

Q: With `C[C@@H](O)[C@H]1C(=O)N2C(C(=O)O)=C(SCCN)C[C@H]12` [thienamycin] as the molecule, how does the “activity against various Pseudomonas species” value [41] read?
A: notable activity
